“Also recorded” adds a separate entry of the source.
Experiments:
human monocytes [1] = test: LPS-induced IL-6 and TNF production from freshly isolated human monocytes (ELISA); assay type: cell-based
Text: (§1) Freshly isolated human peripheral blood mononuclear cells (PBMC) and monocytes were obtained from leukopaks (discarded leukocyte from platelet donations). The cells were fractionated on FICOLL-HYPAQUE™ gradients, washed, treated with tris-buffered NH4Cl to eliminate RBCs and washed to obtain PMBCs. Monocytes were obtained by depleting the PBMCs of T cells and NK cells by negative selection asking standard techniques. T cells and NK cells were removed by treatment with anti-CD3 and anti-CD2 monoclonal antibodies followed by goat anti-mouse Ig conjugated magnetic beads at a 10:1 bead:cell ratio. The monocyte preparations were at least 80-85% monocytes, as determined by anti-CD14 staining and forward and slide light scatter analysis using a FACScan (Becton-Dickenson, Elmhurst, Ill.). Less than 2% of the contaminating cells in the monocyte preparation were T cells and no NK cells could be detected. Monocytes were maintained in Ham's F-12 10% FCS, L-Glutamine and penicillin/streptomyocin at 37° C. in 5% CO2.
(§2) Freshly isolated human monocytes, human PBMC and U373-CD14 cells were incubated with 10 ng/ml LPS (E coli 0111:B4, Sigma, St. Louis, Mo.), 100 ng/ml PMA or were untreated in supplemented RPMI [10% FCS; 2 mM L-glutamine and penicillin/streptomycin] with or without various concentrations of mastoparan for 18 hours at 37° C. in 24 well tissue culture dishes. IL-6 and TNF-α levels were determined by ELISA (Endogen Inc., Boston, Mass.) of supernatants harvested at 4 hours (for TNF-α) and at 18 hours (for IL-6) after LPS stimulation.
(§3) In order to determine if the effect of mastoparan on LPS-induced cytokine production was due to a direct effect on monocytes, a highly enriched monocyte population was tested for the effect of LPS and mastoparan on cytokine production from these cells. Freshly isolated human monocytes were treated with mastoparan and LPS, after which IL-6 and TFN cytokine levels were measured in the tissue culture supernatants of the cells (FIG. 3A). […] When mastoparan was used in conjunction with LPS, cytokine production was diminished. […] Mastoparan had little effect on cytokine production from PMA stimulated cells (FIG. 3B), indicating the specificity of mastoparan action, and lack of mastoparan toxicity. Mastoparan had no effect on cell viability as measured by trypan blue uptake even after 36 hours of continuous mastoparan incubation.

[2] = tested on: LPS-induced lethal endotoxic shock; test: LPS-induced lethal endotoxic shock in rats; assay type: in vivo, Wistar rats
Method: Wistar rats (200 g) were obtained from Charles River Laboratories. Rats were treated with 3 mg/kg mastoparan by intravenous injection in the tail vein, immediately followed by 15 mg/kg lead acetate and 5 μg/kg LPS 0111:B4 intravenously. Mortality was assessed up to 96 hours following LPS treatment. Mortality frequency was compared by Fisher exact test and statistical analysis was performed using Yates corrected Chi square test.
To determine the effect of mastoparan in vivo, the effect of mastoparan on LPS-induced lethal endotoxic shock in rats was assessed.

human monocytes [3] = test: Cell viability by trypan blue uptake; assay type: cell-based; settings: after 36 hours of continuous mastoparan incubation
Method: as §3

human monocytes [4] = test: PMA-induced cytokine production from human monocytes; assay type: cell-based; settings: 100 ng/ml PMA
Method: as §2, §3

U373-CD14 cells = test: LPS-induced IL-6 production from U373-CD14 transfectants; assay type: cell-based
Method: U373 cell CD14 transfectants (U373-CD14) were maintained in EMEM supplemented with 10% FCS, L-Glutamine and penicillin/streptomyocin at 37° C. in 5% CO2.
as §2
In addition, the effect of mastoparan on LSP-induced cytokine production from an LPS responsive, CD14 transfected cell line was determined. LPS treatment of U373-CD14 transfectants induced an LPS dose-dependent production of IL-6 (FIG. 4). […] IL-6 production induced by 10 ng/ml LPS was also ablated by treatment of the cells with mastoparan, while at 100 ng/ml of LPS, mastoparan reduced IL-6 levels by approximately one third. At high concentrations of LPS (1 μg/ml) the IL-6 responses of these cells were not inhibited by treatment with the anti-CD14 monoclonal antibody. […] At LPS concentrations of 1 μg/ml, mastoparan was ineffective at reducing cytokine responses from these cells. Thus, CD14-independent LPS signals were not inhibited by mastoparan.

p38 MAP kinase = test: LPS-induced p38 MAP kinase phosphorylation / nuclear translocation (immunoblotting); assay type: cell-based, human
Method: (§4) For detection of p38, phosphorylated p38 and phosphorylated Erk kinases in monocyte lysates, monocytes were subjected to various treatments and lysed in boiling reducing Laemmli sample buffer. The lysates were subjected to electrophoresis through a 10% SDS PAGE gel and were then transferred to nitrocellulose (NC). After washing twice with TBS-Twwen 20(0.1%) the NC was placed in a solution of Ponceau S dye to ensure equal loading and left in blocking buffer [1×TBS; […]; 5% milk] for 1 hour. After blocking and washing, the NC was incubated with anti-p38 N+C terminus (Santa Cruz Biotechnology Inc., Santa Cruz, Calif.) for 2-3 hours or with anti-phosphorylated p38 and Erk antibodies (New England Biolabs, Inc., Beverly, Mass.) for 18 hours. Membranes were washed three times in TBS-Tween 20 and were incubated for 30 minutes with horseradish peroxidase conjugated donkey-α-rabbit antibody in blocking buffer (Amersham Corp., Arlington Heights, Ill.). Membranes were washed an additional six times [3×TBS-Tween-20; 3×TBS], and were developed by exposure to ECL chemicals (Amersham corp., Arlington Heights, Ill.) and visualized by exposure to film.
For detection of p38 in nuclear extracts, cells after a variety of treatments were subject to lysis and nuclear extraction as described in Lerder et al., J. Immunol. 152:77-86 (1994). The nuclear extracts were subjected to protein quantitation by Micro BCA assay (Pierce, Rockford, Ill.) using a BSA standard. The details of the blotting procedure were the same as above except that […] of extract was used.
Because mastoparan had profound effects on cytokine production and p38 MAP kinase is involved,in LPS induced-signaling, the effect of mastoparan on MAP kinase activation was evaluated. For full activation, p38 MAP kinase requires phosphorylation on both threonine and tyrosine residues (Raingeaud et al., J. Biol. Chem., 270: 7420-7426, 1995). Detection of dual-phosphorylated p38 MAP kinase by monoclonal antibodies specific for the dual-phosphorylated form of p38 was used as a measure of p38 activation. […]

Erk kinases = test: Erk 1 and 2 MAP kinase activation in human monocytes (immunoblotting); assay type: cell-based
Method: as §4
The lack of substantial LPS-induced Erk kinase phosphorylation in freshly isolated monocytes is consistent with results obtained with other non-transformed human cells (Nick et al., J. Immunol., 156: 4867-4875, 1996). […]

human PBMCs = test: LPS-induced IL-6 production from human PBMCs (ELISA); assay type: cell-based; settings: for inhibition of LPS-induced IL-6 production: LPS stimulated human PBMCs, 10 ng/ml LPS, IL-6 at 18 hours
Text: as §1, §2
Freshly isolated PBMCs were treated with LPS and/or peptides (mastoparan or the MAS-17 control peptide) and IL-6 levels were measured in the tissue culture supernatants of the cells (FIG. 2). PBMCs produced IL-6 in response to LPS, while neither mastoparan nor MAS-17 stimulated IL-6 production from the PBMCs.

[5] = LPS-stimulated, various concentrations of mastoparan (FIG. 3A)
[6] = 3 mg/kg mastoparan i.v. + lead acetate + 5 μg/kg LPS, dead/total

mastoparan
inhibition of IL-6 production in human monocytes (human monocytes [1]; [5]): dose-dependent inhibition
inhibition of TNF-α production in human monocytes (human monocytes [1]; [5]): dose-dependent inhibition
LPS-induced cytokine production (human monocytes [1]; human monocytes, 13.34 μM mastoparan): totally ablated
IL-6 production induced by mastoparan alone (human monocytes [1]; human monocytes, without LPS): induced neither
TNF production induced by mastoparan alone (human monocytes [1]; human monocytes, without LPS): induced neither
reduction of IL-6 production in monocytes stimulated with LPS (human monocytes [1]; mastoparan as low as 1.67 μM): dramatic reductions
reduction of TNF production in monocytes stimulated with LPS (human monocytes [1]; mastoparan as low as 1.67 μM): dramatic reductions
LPS-induced cytokine production from human monocytes (human monocytes [1]; mastoparan in conjunction with LPS, concentration not given): inhibition; also recorded: diminished
Mortality Total (%) ([2]; 3 mg/kg mastoparan i.v. + lead acetate + 5 μg/kg LPS): 44.4%
Mortality 14 hours [2, 6]: 7/18
Mortality 24 hours [2, 6]: 8/18
protection from LPS induced mortality ([2]; 3 mg/kg mastoparan i.v., 15 mg/kg lead acetate and 5 μg/kg LPS i.v., p<0.05 at 14 and 24 hours): significantly protect
mortality at 96 hours relative to the 24 hour point ([2]; experiment continued for 96 hours): unchanged
toxic effects when used alone in the model system ([2]; mastoparan alone, data not shown): did not have any toxic effects
cell viability as measured by trypan blue uptake (human monocytes [3]): no effect
cytokine production from PMA stimulated cells (human monocytes [4]): little effect
IL-6 production induced by LPS (U373-CD14 cells; U373-CD14 cells, 10 ng/ml LPS): ablated
reduction of IL-6 levels (U373-CD14 cells; U373-CD14 cells, 100 ng/ml LPS): approximately one third
IL-6 / cytokine responses at high LPS (CD14-independent) (U373-CD14 cells; U373-CD14 cells, 1 μg/ml LPS): ineffective
CD14-dependent LPS induced signal transduction (U373-CD14 cells; U373-CD14 transfected cells (FIG. 4)): inhibits
LPS-induced p38 MAP kinase activity (p38 MAP kinase; FIG. 5B): reduces
LPS-induced phosphorylation of p38 MAP kinase (p38 MAP kinase; monocytes and PBMC): inhibition; also recorded: reduced
LPS-induced nuclear translocation of p38 (p38 MAP kinase; nuclear extracts): inhibited
Erk kinase activation induced by LPS (Erk kinases): specific inhibition; also recorded: completely inhibited
Erk kinase activation induced by PMA (Erk kinases): minimal effects
inhibition of LPS-induced IL-6 production (human PBMCs): potent inhibitor
inhibition of LPS-induced IL-6 production (human PBMCs; listed as mastoparan): inhibits; also recorded: dose-dependent
LPS-induced IL-6 production (human PBMCs; human PBMCs, 13.3 μM mastoparan): totally ablated
IL-6 production stimulated by peptide alone (human PBMCs; human PBMCs, peptide without LPS): neither

Reference: patent US6949507B2, “Use of agents which bind G proteins for treating septic shock” (Dana-Farber Cancer Institute, Inc., priority 1997, dated 2005)
